Experimental data reported in patent publication US20260076959A1, “COMBINATION PRODUCT, SALT, AND USE THEREOF IN TREATING NEURODEGENERATIVE DISEASES OR DISORDERS” (SHANGHAI HENLIUS BIOTECH, INC., priority 2023, published 2026).
Structures can show the parent of a compound that is named as a salt.

Experiments:
ALS = settings: in vivo; cited from earlier work
[1] = tested on: MPTP-induced Parkinson's disease mouse model; assay: MPTP-induced Parkinson's disease mouse model (grip strength, rotarod, TH immunohistochemistry); type: in vivo, C57BL/6 mice; settings: for reduction in TH-positive cells in the substantia nigra region: P<0.0001
Description: Sixty male C57BL/6 mice were selected and randomly divided into 5 groups (12 mice/group), namely a sham surgery group (normal control), a model group (model control), an L-DOPA group (positive drug control, 40 mg/kg), a low-dose YT salt treatment group (167.5 mg/kg), and a high-dose YT salt treatment group (248 mg/kg). The mice were intraperitoneally injected with MPTP at a dose of 30 mg/kg for 5 consecutive days for modeling. The YT salt was intragastrically administered twice daily (with an interval of 7-8 h between two administrations) for 13 consecutive days. L-DOPA was administered twice daily (with an interval of 7-8 h between two administrations) for 8 consecutive days. The amelioration effect of the YT salt on the motor function of the MPTP-induced Parkinson's disease mice was evaluated by behavioral indicators such as a grip strength test and a rotarod test. Histopathological examination was performed on the animals to evaluate the protective effect of the YT salt on dopaminergic neurons in the MPTP-induced Parkinson's disease mice.

CD8-positive T cells = assay: Proliferation of CD8-positive T cells from anti-CD3/CD28-stimulated PBMCs (CellTrace, flow cytometry); type: cell-based, human; settings: 72 h; for proliferation of CD8-positive T cells compared to control group (DMSO): 100 μM (Y+T: 100 μM+100 μM)
Text: (§1) It has been reported that in ALS, Th cells are described as major players in inflammation and disease progression. […] Similarly, CD8 T cell infiltration was also observed in the spinal cord and brain of ALS patients. (Elise Liu, et al., Neuroinflammation in Amyotrophic Lateral Sclerosis and Frontotemporal Dementia and the Interest of Induced Pluripotent Stem Cells to Study Immune Cells Interactions With Neurons, Front Mol Neurosci. 2021 Dec. 14; 14:767041. doi: 10.3389/fnmol.2021.767041.) To observe the inhibitory effects of the compounds, the compound combination, or the salt of the present disclosure on immune cell infiltration or proliferation, their effects in inhibiting the proliferation of CD4-positive and CD8-positive T cells were further analyzed. First, a certain amount of human peripheral blood mononuclear cells (PBMCs) were incubated with 5 μM CellTrace cell proliferation assay reagent in an incubator at 37° C. with 5% CO2 in the dark for 20 min. Then, 1.5×10^5 CellTrace-stained PBMCs were seeded in a 96-well U-bottom plate and treated with Anti-CD3/CD28 antibody-coupled magnetic beads at a ratio of 1:1 (cell count:magnetic bead count) to induce differentiation into T cells. Subsequently, various compounds at corresponding concentrations (compound Y: 100 μM; compound T: 100 μM; compound combination Y+T: 100 µM compound Y+100 μM compound T; YT salt: 100 μM; control group: […] (100 μM)) were co-incubated with the above-treated cells in the incubator at 37° C. with 5% CO2 for 72 h, followed by analysis by a flow cytometer. Specifically, the test cells were first treated with a Live/dead dye (633 nm, 1:1000 dilution) at 4° C. for 30 min to distinguish dead cells from live cells. […] After appropriate washing, the above-stained cells were analyzed by a flow cytometer at different wavelengths. […] Proliferation of CD4-positive and CD8-positive T cells was determined by the fluorescence of CellTrace dye.

CD4-positive T cells = assay: Proliferation of CD4-positive T cells from anti-CD3/CD28-stimulated PBMCs (CellTrace, flow cytometry); type: cell-based, human; settings: 72 h; for proliferation of CD4-positive T cells compared to control group (DMSO): 100 μM (Y+T: 100 μM+100 μM)
Text: as §1

[2] = tested on: 6-OHDA-induced Parkinson's disease rats; assay: 6-OHDA-induced Parkinson's disease rat model (grid walking test); type: in vivo, SD rats; settings: 248 mg/kg intragastrically once daily, 6 weeks; P<0.05 vs model
Description: Forty-eight male SD rats were selected and divided into 4 groups (12 rats/group), namely a sham surgery group (normal control), a model group (model control), an istradefylline group (istradefylline, as a positive drug control, 10 mg/kg), and a YT salt treatment group (248 mg/kg). The Parkinson's disease model was established by injecting […] of 6-OHDA into the right intracranial medial forebrain bundle (MFB) of rats. After modeling, istradefylline and the YT salt were administered intragastrically once daily for 6 consecutive weeks, and a grid walking test was performed at the end of the 6-week administration period to evaluate the disease progression in the rats.

SH-sy5y cells = assay: Cell viability of hydrogen peroxide-induced SH-sy5y cells (CellTiter-Glo luminescence); type: cell-based
Description: Neuroblastoma SH-sy5y cells (purchased from the Cell Bank of the Chinese Academy of Sciences) were cultured in a complete medium (DMEM+10% FBS+1% PS) in a cell incubator at 37° C. with 5% CO2. The experiment was divided into 11 groups in total: • Group 1 (control): SH-sy5y cells • Group 2 (model): SH-sy5y cells+hydrogen peroxide • Group 3: SH-sy5y cells+hydrogen peroxide+compound Y (100 μM) • Group 4: SH-sy5y cells+hydrogen peroxide+compound T (100 μM) • Group 5: SH-sy5y cells+hydrogen peroxide+compound B (100 μM) • Group 6: SH-sy5y cells+hydrogen peroxide+compound N (100 μM) • Group 7: SH-sy5y cells+hydrogen peroxide+compound combination Y+T (100 μM+100 μM) • Group 8: SH-sy5y cells+hydrogen peroxide+compound combination B+N (100 μM+100 μM) • Group 9: SH-sy5y cells+hydrogen peroxide+compound combination PB+T (500 μM+200 μM) • Group 10: SH-sy5y cells+hydrogen peroxide+YT salt (100 μM) • Group 11: SH-sy5y cells+DMSO
Neuroblastoma SH-sy5y cells were plated at 1×10^4 cells/well in a complete medium (DMEM+10% FBS+1% PS) and cultured in a cell incubator at 37° C. with 5% CO2 for 24 h, followed by the addition of the corresponding compounds. After 24 h of incubation, hydrogen peroxide was added to stimulate the cells for 1 h, with the final concentration of hydrogen peroxide being 350 µM. Subsequently, […] CellTiter-Glo® (CTG) reagent was added, and the mixture was shaken for 2 min. Then, the luminescence signal values were measured, which could characterize the cell viability. […] Pharmacology/toxicologyNDAreviewandevaluation, Application number: 2166600Orig1s000, Food and Drug Administration. doi: pink.pharmaintelligence.informa.com/-/media/supporting-documents/pink-sheet/2022/11/relyvrio_nonclinical.pdf?rev=d27109bf35c040d4a78f73144d132917&hash=414BB5B4473A21ECE0231375EB1C0341).

[3] = tested on: SOD1G93A mutant ALS model mice; assay: Onset of disease, severe conditions and survival in SOD1G93A ALS mouse model; type: in vivo
Description: The therapeutic effect of the YT salt on the survival status of ALS animals was evaluated in SOD1^G93A transgenic mice (B6SJL-Tg (SOD1*G93A) 1/cyagen). Sixteen female and fourteen male B6SJL-Tg(SOD1*G93A) 1/cyagen mice were selected and randomly divided into 2 groups (7 males+8 females/group) according to sex and body weight, namely a model group (control) and a YT salt group (treatment group). The YT salt was intragastrically administered at a dose of 496 mg/kg once daily. The administration began on day 66 of mouse age. Body weight changes were monitored, animal status and symptom severity were evaluated, and individual survival periods were recorded. Statistics on the severity of animal symptoms included the time to the first onset of disease and the time to the first observation of severe conditions in the animals. […] In this study, “severe condition” was defined as a state in which the animal was completely paralyzed and unable to move freely, but still alive; if the animal died directly without going through a “paralysis” stage after the onset of disease, the death was considered the occurrence of a severe condition. The survival period was statistically defined as the survival time of the animal at the endpoint of the test (day 130). The hazard ratio was calculated using the Log-rank test method.

[4] = 496 mg/kg intragastrically once daily

In the case of `CC1=NN(c2ccccc2)C(=O)C1` [Evadarone], the “revised ALS functional rating scale (ALSFRS-R) score” value (ALS) is given as “improves”.
For `N[C@@H](Cc1ccc(O)c(O)c1)C(=O)O` [L-DOPA, reference compound], the “MPTP-induced decrease in animal grip strength” value ([1]; L-DOPA 40 mg/kg twice daily, 8 days, P<0.001 vs model) was “significantly ameliorate” and the “reduction in TH-positive cells in the substantia nigra region” value (from here on “reduction in TH-positive cells”) ([1]; L-DOPA 40 mg/kg twice daily) was “significant inhibition”.
For `COc1cc2cc3[n+](cc2cc1OC)CCc1cc2c(cc1-3)OCO2` [YT salt], the “proliferation of CD8-positive T cells compared to control group (DMSO)” value (CD8-positive T cells) was “significantly inhibited”, the “inhibitory effect on proliferation of CD8-positive T cells compared to compound T and compound U (UDCA)” value (CD8-positive T cells; 100 μM) was “significantly superior” and the “proliferation of CD4-positive T cells compared to control group (DMSO)” value (CD4-positive T cells) was “significantly inhibited”. The “inhibitory effect on proliferation of CD4-positive T cells compared to compound T and compound U (UDCA)” value (CD4-positive T cells; 100 μM) was “significantly superior”, the “foot fault rate in grid walking test” value [2] was “significant reduction” and the “number of foot faults in grid walking test” value [2] was “significant reduction”. For the same compound, the “effects in improving cell viability compared to compound T, compound B, combination B+N and combination PB+T” value (SH-sy5y cells; Y+T 100 μM+100 μM, YT salt 100 μM, hydrogen peroxide-induced) was “significantly superior effects in improving cell viability”, the median onset time [3, 4] was 109 days and the “median time to severe condition occurrence” value [3, 4] was 117 days. The “onset time (earliest onset in group)” value [3, 4] was > 90 days of mouse age, the “time of first onset vs model group (Log-rank)” value ([3]; 496 mg/kg intragastrically once daily from day 66 of age, P=0.0802) was “no statistical difference” and the “hazard ratio for disease onset” value ([3]; 496 mg/kg intragastrically once daily, Log-rank) was 0.5716. The “survival period vs model group” value ([3]; 496 mg/kg intragastrically once daily, P<0.01) was “significantly superior”, the “incidence of severe conditions vs model group” value ([3]; 496 mg/kg intragastrically once daily, P<0.05) was “significantly lower” and the “median onset time longer than in the model group” value ([3]; 496 mg/kg intragastrically once daily, model group 102 days) was 7 days. For the same compound, the death hazard ratio ([3]; 496 mg/kg, Log-rank) was 0.3212, the “hazard ratio for severe conditions” value ([3]; 496 mg/kg, Log-rank) was 0.45 and the endpoint survival rate ([3]; 496 mg/kg, endpoint day 130) was 53.333%. The median survival period ([3]; 496 mg/kg, endpoint day 130) was “the number of dead individuals had not exceeded half by the endpoint of the test”, the “endpoint severe condition rate” value ([3]; 496 mg/kg, endpoint of the test day 130) was 66.667% and the “hazard ratio for disease onset, times lower than model group” value ([3]; 496 mg/kg, model group 1.749) was “about 3 times”. The “hazard ratio for severe conditions, times lower than model group” value ([3]; 496 mg/kg, model group 2.222) was “about 5 times”, the “death hazard ratio, times lower than model group” value ([3]; 496 mg/kg, model group 3.113) was about 10 times and the “median time to severe condition occurrence longer than in the model control group” value ([3]; 496 mg/kg, model group 109 days) was “about 8 days”. The “apoptosis of dopaminergic neurons in the substantia nigra region and striatal region” value ([1]; YT salt 167.5 mg/kg twice daily) was “significantly inhibit”, the “MPTP-induced decrease in animal grip strength” value ([1]; YT salt high dose 248 mg/kg intragastrically twice daily, 13 days, P<0.01 vs model) was “significantly ameliorate” and the “reduction in TH-positive cells” value ([1]; YT salt high dose 248 mg/kg twice daily) was “significant inhibition”. For the same compound, the “loss of TH-positive neurons (TH immunohistochemical staining in the striatum)” value ([1]; YT salt high dose 248 mg/kg twice daily, P<0.01) was “significant inhibition”, the “MPTP-induced reduction in time on the rod (rotarod test)” value ([1]; YT salt high dose 248 mg/kg twice daily, P<0.05 vs model) was “significant amelioration effect” and the “reduction in TH-positive cells” value ([1]; YT salt low dose 167.5 mg/kg twice daily) was “significant inhibition”.
With `COc1cc2cc3[n+](cc2cc1OC)CCc1cc2c(cc1-3)OCO2.[Cl-]` [compound Y] the “proliferation of CD8-positive T cells compared to control group (DMSO)” value (CD8-positive T cells) was “significantly inhibited”, the “proliferation of CD4-positive T cells compared to control group (DMSO)” value (CD4-positive T cells) was “significantly inhibited” and the “effect in improving cell viability compared to compound B monotherapy” value (SH-sy5y cells; 100 μM each, hydrogen peroxide-induced) was “superior”. The “effect in improving cell viability compared to the model” value (SH-sy5y cells; 100 μM, 24 h incubation, then hydrogen peroxide 1 h, P<0.0001 vs model) was “excellent effect in improving cell viability”.
